In US20080311578A1, “System for screening eukaryotic membrane proteins” (Hydra Biosciences, Inc., priority 2004, published 2008):

Experiments:
Assay type in all cases: cell-based
[1] = target: T1, human CatSper 1 calcium channel (Homo sapiens, UniProt Q8NEC5); experiment: aequorin calcium flux assay in bacterial cells expressing hCatSper1; settings: CatSper1 expressed in bacterial cells, FIG. 5
T1 construct: expressed in transfected cells; host or cells: E. coli (Rosetta-Gami B (DE3) pLysS, Novagen), modified pET dual-T7 vector, co-expressed with apo-aequorin
T1 sequence (Q8NEC5 1-780): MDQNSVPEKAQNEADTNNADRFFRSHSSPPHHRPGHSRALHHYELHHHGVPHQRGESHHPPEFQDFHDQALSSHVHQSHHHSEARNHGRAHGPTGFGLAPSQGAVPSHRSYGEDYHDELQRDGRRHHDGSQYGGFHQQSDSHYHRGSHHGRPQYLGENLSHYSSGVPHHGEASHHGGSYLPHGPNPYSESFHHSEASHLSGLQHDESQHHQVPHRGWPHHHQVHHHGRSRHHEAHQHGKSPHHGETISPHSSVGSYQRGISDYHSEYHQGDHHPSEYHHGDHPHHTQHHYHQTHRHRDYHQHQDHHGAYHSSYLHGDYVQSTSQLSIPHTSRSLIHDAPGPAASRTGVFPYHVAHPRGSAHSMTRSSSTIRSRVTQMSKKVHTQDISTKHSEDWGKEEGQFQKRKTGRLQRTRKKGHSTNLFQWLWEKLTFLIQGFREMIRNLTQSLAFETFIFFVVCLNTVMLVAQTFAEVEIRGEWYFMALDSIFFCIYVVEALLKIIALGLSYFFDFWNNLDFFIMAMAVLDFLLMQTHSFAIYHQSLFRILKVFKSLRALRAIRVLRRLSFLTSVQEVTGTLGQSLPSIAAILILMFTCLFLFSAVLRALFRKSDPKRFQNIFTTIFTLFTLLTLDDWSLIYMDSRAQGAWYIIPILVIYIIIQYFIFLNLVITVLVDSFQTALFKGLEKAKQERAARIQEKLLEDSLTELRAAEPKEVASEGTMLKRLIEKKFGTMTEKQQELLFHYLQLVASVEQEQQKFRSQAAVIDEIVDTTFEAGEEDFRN
Method: (§1) 1) 0.5-2 mL of an overnight bacteria (already transformed with a nucleic acid construct or composition encoding a eukaryotic Calcium ion channel and an aequorin marker) culture is innoculated into 25 mL of LB-Amp;
(§2) 2) Bacteria are grown to an OD (optical density) of 0.6;
(§3) 3) 1 mM IPTG added for 2-hour induction;
(§4) 4) Bacteria are spun down, resuspended in ½ volume of nominally divalent free ringers and loaded with coelenterazine;
(§5) 5) Bacteria are rinsed and loaded into 96 well plate ([…]);
(§6) 6) Plate is put in a plate reader, e.g., a Wallac Victor 3;
(§7) 7) Plate is shaken for 2 sec then rested for 5 seconds;
(§8) 8) 10 reads are taken 1 second apart;
(§9) 9) 5 μL of 20 mM CaCl2 is injected;
(§10) 10) 50 reads are taken 1 second apart;
(§11) Note: When a blocker is present, it is added before the plate is put in the reader.
(§12) A further indicator of the functional activity of the ion channel is whether its activity is sensitive to treatment with agonistic or inhibitory agents. FIG. 5 summarizes experiments conducted to address this issue. […] Furthermore, the calcium-flux mediating activity of the channels is inhibited following addition of the calcium channel inhibitor, lanthanum.

[2] = target: T2, rat TrpV1 calcium channel (Rattus norvegicus, UniProt O35433); experiment: aequorin calcium flux assay in bacterial cells expressing rat TrpV1
T2 construct: expressed in transfected cells; host or cells: E. coli (Rosetta-Gami B (DE3) pLysS, Novagen), dual-T7 expression plasmid, co-expressed with aequorin
T2 sequence (O35433 whole entry): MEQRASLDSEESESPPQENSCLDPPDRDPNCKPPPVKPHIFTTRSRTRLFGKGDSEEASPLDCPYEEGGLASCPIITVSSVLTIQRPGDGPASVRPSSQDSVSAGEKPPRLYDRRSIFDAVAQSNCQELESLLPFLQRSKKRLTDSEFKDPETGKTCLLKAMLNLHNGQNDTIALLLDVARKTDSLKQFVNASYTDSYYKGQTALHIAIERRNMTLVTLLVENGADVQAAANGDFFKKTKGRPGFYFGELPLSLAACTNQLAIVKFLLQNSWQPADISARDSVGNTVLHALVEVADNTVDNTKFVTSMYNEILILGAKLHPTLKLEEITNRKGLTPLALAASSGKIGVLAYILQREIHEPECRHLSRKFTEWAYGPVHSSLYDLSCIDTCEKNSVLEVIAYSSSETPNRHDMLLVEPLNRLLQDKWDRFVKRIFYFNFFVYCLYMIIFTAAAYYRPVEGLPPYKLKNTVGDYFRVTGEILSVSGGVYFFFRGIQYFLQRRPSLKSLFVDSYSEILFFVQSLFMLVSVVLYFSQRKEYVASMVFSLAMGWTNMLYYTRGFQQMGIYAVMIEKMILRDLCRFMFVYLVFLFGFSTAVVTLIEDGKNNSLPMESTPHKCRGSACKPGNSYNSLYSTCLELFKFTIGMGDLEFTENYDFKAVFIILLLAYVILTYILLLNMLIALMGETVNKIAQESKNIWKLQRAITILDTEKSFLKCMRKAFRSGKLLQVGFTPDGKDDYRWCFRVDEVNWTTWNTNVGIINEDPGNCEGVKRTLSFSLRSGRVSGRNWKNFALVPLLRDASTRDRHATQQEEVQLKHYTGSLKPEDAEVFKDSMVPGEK
Method: as §1, §2, §3, §4, §5, §6, §7, §8, §9, §10, §11, §12
(§13) The Trp channel blocker ruthenium red inhibits TrpV1 mediated calcium flux in bacterial cells or CHO cells.

[3] = target: T3, rat TrpV1 (Rattus norvegicus, UniProt O35433); experiment: TrpV1 mediated calcium flux in CHO cells; settings: FIG. 8
T3 construct: expressed in transfected cells; host or cells: CHO cells
T3 sequence (O35433 whole entry): as above
Source text: as §13

inhibition of calcium-flux mediating activity of the channel [1] | inhibition of calcium-flux mediating activity of the channel ([2]; TrpV1 expressed in bacterial cells, FIG. 5) | potency (IC50) in bacterial cells compared with CHO cells ([2]; bacterial cells vs CHO cells, FIG. 8) | inhibition of TrpV1 mediated calcium flux ([2]; bacterial cells, FIG. 8) | calculated Hill slope values, CHO cells vs bacterial cells ([2]; comparison between the CHO cells and the bacterial cells, FIG. 8) | inhibition of TrpV1 mediated calcium flux [3] | Structure (SMILES)
inhibited in a dose dependent fashion | inhibited in a dose dependent fashion | – | – | – | – | [La] [lanthanum]
– | – | somewhat less potent | inhibits | not significantly different | inhibits | N.N.N.N.N.N.N.N.N.N.N.N.N.N.[Cl-].[Cl-].[Cl-].[Cl-].[Cl-].[Cl-].[O-2].[O-2].[Ru+3].[Ru+3].[Ru+4] [ruthenium red]
